The record followed here is patent US12448394B2, “Heterocyclic pyrazole derivatives as type III receptor tyrosine kinase inhibitors” (DEVELOPMENT CENTER FOR BIOTECHNOLOGY, priority 2019, dated 2025).

For test [1], the system named is Molm-14 human acute myeloid leukemia cell with FLT3-ITD mutation. The test can be described thus: Molm-14 cell proliferation assay (CellTiter 96). The class given is cell-based. The note with it: Homo sapiens; Molm-14 cells, 72 hours treatment, CellTiter96; read-out: anti-proliferation activity Molm-14 (FLT3-ITD), IC50 ranking. As to the method:
Inhibitions of cell growths by compounds were measured using CellTiter™-96 assay. The cytotoxicities of compounds of the invention were evaluated in cell line panels with different signaling pathway dependencies, including MV4-11 human acute myeloid leukemia cell with FLT3-ITD mutation, Molm-14 human acute myeloid leukemia cell with FLT3-ITD mutation, THP-1 human acute monocytic leukemia cell with NRAS G12D mutation, A375 melanoma cell with BRAF V600E mutation, and HCC827 NSCLC cell with EGFR exon 19 deletion mutation.
The compounds disclosed herein were tested in Molm-14 cell proliferation assay to determine their cellular potencies against FLT3 signal pathway dependent cell growths. Molm-14 cells are human acute myeloid leukemia (AML) cells harboring ligand-independent FLT3-ITD activating mutation, which renders the abnormal proliferation of the AML cells FLT3 signaling pathway dependent. Inhibition of FLT3 kinase activity will result in reduced growths and/or cell deaths. […] Briefly, cells were grown in RPMI 1640 medium supplemented with 10% heat inactivated fetal bovine serum and incubated at 37° C. in 5% CO2 atmosphere. Cells were allowed to expand until reaching saturation, at which point they were sub-cultured or harvested for assay use.
MV4-11, Molm-14, THP-1, A375, and HCC827 cells were seeded into 96-well plates at 6500, 25000, 5000, 2000 and 8000 cells/well, respectively, and incubated at 37° C., 5% CO2 overnight. Then, these seeded cells were treated with increasing concentrations of the test compounds and incubated for another 72 hours. At the end of the incubation, CellTiter96® AQueous One Solution Reagent (Promega, […]) was added and incubated for the additional 2˜4 hours. Cell viability was determined by measuring absorbance at 490 nm using EMax® microplate reader (Molecular Devices, San Jose, CA, USA).

Another test concerns the target T1, FLT3-D835Y mutant kinase (Homo sapiens, UniProt P36888, D835Y).
T1 construct: purchased SignalChem
T1 sequence (P36888 27-993 D835Y): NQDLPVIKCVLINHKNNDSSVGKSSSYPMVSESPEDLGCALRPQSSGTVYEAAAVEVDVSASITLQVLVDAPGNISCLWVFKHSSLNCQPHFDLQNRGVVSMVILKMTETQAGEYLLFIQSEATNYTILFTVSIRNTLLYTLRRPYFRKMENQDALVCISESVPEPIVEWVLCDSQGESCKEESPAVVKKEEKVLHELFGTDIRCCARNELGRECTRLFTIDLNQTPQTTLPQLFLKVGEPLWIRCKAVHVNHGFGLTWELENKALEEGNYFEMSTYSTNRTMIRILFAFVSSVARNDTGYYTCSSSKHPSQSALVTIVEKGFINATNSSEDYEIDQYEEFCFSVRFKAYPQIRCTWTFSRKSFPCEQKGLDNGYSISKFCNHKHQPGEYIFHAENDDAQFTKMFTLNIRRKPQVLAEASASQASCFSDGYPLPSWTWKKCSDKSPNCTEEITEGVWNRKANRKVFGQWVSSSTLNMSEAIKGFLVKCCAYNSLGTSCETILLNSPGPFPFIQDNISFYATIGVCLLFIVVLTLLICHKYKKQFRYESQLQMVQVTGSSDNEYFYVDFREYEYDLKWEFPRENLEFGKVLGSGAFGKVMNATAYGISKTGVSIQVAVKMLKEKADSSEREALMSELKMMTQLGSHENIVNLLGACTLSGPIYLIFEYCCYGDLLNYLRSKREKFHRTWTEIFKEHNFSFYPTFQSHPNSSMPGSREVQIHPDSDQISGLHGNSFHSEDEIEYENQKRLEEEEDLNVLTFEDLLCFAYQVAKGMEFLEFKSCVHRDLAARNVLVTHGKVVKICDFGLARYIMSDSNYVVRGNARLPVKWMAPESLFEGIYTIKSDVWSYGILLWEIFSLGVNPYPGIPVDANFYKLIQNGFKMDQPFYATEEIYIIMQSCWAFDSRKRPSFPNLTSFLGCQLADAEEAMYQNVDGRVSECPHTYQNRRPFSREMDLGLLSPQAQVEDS
As to the kind of experiment: FLT3-D835Y mutant kinase assay (AlphaScreen). The class given is biochemical. The note with it: read-out: Ranking of IC50 values, FLT3-D835Y. As to the method: Inhibition of FLT3-D835Y mutant kinase activity by a test compound disclosed herein was estimated by AlphaScreen (PerkinElmer). Standard assay conditions were 1 ng of recombinant FLT3-D835Y mutant kinase (SignalChem) with 6 ng Biotin-conjugated Poly-(Glu 4: Tyr 1) (Cisbio) in the assay buffer (10 μM ATP, 10 mM MOPs, pH7.0, 0.21 mM EDTA, 0.5% glycerol, 1 mg/mL BSA, 0.01% 2-mercaptoethanol, 0.001% Brij35, 10 mM MgCl2) in a final volume of 25 μL. Reactions were incubated at 30° C. for 30 min and stopped by adding 5 μL of 50 mM EDTA. Analysis of resulting product using an AlphaScreen kit and counted with Enspire Alpha (PerkinElmer). […] The IC50 values of inhibitors were determined after carrying out assays with each compound at serially diluted concentrations in duplication. The results were analyzed using linear regression software (GraphPad Prism 5; GraphPad Software Inc.)
Background: Bead proximity is the source of the signal in Alpha formats.

For another test, the target named is T2, MET kinase (Homo sapiens, UniProt P08581).
T2 construct: purchased SignalChem
The test can be described thus: MET kinase assay (AlphaScreen, counter screen). It counts as biochemical. The note with it: read-out: Ranking of IC50 values, MET. The protocol: Because MET kinase belonged to Class VIII RTK family have one transmembrane a chain linked with one extracellular β chain which is different form Class III RTK family with 5 Immunoglobin-like extracellular domains. Standard assay conditions were 1 ng of recombinant MET kinase (SignalChem) with 3 ng Biotin-conjugated Poly-(Glu 4: Tyr 1) (Cisbio) in the assay buffer ([…], 10 mM MOPs, pH 7.0, 0.21 mM EDTA, 0.5% glycerol, 1 mg/mL BSA, 0.01% 2-mercaptoethanol, 0.001% Brij35, 10 mM MgCl2) in a final volume of 25 μL. Reactions were incubated at 30° C. for 45 min and stopped by adding 5 μL of 50 mM EDTA. Analysis of resulting product using an AlphaScreen kit and counted with Enspire Alpha (PerkinElmer). […] The IC50 values of inhibitors were determined after carrying out assays with each compound at serially diluted concentrations in duplication. The results were analyzed using linear regression software (GraphPad Prism 5; GraphPad Software Inc.)

T2 sequence (P08581 25-1390): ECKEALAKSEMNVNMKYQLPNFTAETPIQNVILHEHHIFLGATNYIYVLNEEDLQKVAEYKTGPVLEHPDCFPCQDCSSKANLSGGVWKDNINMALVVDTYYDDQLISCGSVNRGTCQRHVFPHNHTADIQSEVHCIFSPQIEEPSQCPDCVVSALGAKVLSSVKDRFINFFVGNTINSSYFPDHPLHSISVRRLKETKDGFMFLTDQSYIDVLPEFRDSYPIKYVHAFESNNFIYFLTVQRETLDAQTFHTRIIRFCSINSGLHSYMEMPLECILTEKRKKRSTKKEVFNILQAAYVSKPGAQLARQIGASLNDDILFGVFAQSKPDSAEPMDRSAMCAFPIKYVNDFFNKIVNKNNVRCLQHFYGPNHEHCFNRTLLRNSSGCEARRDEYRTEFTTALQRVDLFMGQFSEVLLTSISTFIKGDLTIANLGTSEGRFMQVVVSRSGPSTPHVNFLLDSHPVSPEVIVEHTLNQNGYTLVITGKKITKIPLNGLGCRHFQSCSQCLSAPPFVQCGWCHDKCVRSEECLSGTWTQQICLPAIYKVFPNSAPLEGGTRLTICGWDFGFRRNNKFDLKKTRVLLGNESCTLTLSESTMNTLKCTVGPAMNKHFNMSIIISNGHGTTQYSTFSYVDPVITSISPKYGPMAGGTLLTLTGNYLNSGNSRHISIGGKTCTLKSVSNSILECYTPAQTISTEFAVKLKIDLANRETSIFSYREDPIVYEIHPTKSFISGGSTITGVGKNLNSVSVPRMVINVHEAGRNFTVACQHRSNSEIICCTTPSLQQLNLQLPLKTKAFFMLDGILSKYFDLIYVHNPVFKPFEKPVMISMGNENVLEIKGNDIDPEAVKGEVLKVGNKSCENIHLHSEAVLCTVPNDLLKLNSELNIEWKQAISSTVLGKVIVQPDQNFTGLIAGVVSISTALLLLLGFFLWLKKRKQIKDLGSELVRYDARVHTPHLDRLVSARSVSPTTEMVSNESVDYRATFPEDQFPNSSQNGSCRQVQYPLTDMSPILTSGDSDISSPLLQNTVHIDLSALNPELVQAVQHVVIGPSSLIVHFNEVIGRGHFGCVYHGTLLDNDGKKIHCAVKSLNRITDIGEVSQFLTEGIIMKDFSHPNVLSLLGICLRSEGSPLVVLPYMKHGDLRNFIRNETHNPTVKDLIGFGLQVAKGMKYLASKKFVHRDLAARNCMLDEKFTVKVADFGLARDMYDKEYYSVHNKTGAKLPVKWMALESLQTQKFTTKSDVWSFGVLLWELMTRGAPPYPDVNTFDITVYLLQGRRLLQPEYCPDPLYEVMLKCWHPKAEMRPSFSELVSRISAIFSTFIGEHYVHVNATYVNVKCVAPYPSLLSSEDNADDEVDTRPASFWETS

Consider `CN(C)c1ccc(-c2cc3c(s2)Cc2c(-c4ccc5cnn(C)c5c4)n[nH]c2-3)cn1` [Compound 5, N,N-dimethyl-5-(3-(1-methyl-1H-indazol-6-yl)-1,4-dihydrothieno [2′,3′:4,5]cyclopenta[1,2-c]pyrazol-6-yl)pyridin-2-amine], for which the IC50 is 100 to 300 nM in test [1], 1 to 10 nM at FLT3-D835Y mutant kinase and greater than 1000 nM at MET kinase.
In the case of `c1cc(-c2cc3c(s2)Cc2c(-c4ccc5cn[nH]c5c4)n[nH]c2-3)ccc1CN1CCOCC1` [Compound 6, 4-(4-(3-(1H-indazol-6-yl)-1,4-dihydrothieno[2′,3′:4,5]cyclopenta[1,2-c]pyrazol-6-yl)benzyl)morpholine], the IC50 was less than 30 nM in test [1], less than 1 nM at FLT3-D835Y mutant kinase and greater than 1000 nM on MET kinase.
For `C[C@@H]1CN(Cc2ccc(-c3cc4c(s3)Cc3c(-c5ccc6cn[nH]c6c5)n[nH]c3-4)cc2)C[C@H](C)O1` [Compound 7, (2S,6R)-4-(4-(3-(1H-indazol-6-yl)-1,4-dihydrothieno[2′,3′:4,5]cyclopenta [1,2-c]pyrazol-6-yl)benzyl)-2,6-dimethylmorpholine], the IC50 in test [1] is less than 30 nM; at FLT3-D835Y mutant kinase, 1 to 10 nM; at MET kinase it was greater than 1000 nM.
`Cn1ncc2ccc(-c3n[nH]c4c3Cc3sc(-c5ccc(CN6CCOCC6)cc5)cc3-4)cc21` [Compound 8, 4-(4-(3-(1-methyl-1H-indazol-6-yl)-1,4-dihydro-thieno[2′,3′:4,5]cyclopenta [1,2-c]pyrazol-6-yl)benzyl) morpholine]: the IC50 in test [1] is 30 to 100 nM; on FLT3-D835Y mutant kinase, 1 to 10 nM; at MET kinase, greater than 1000 nM.
On the same counts, the results for `C[C@@H]1CN(Cc2ccc(-c3cc4c(s3)Cc3c(-c5ccc6cnn(C)c6c5)n[nH]c3-4)cn2)C[C@H](C)O1` [Compound 9, (2S,6R)-2,6-dimethyl-4-((5-(3-(1-methyl-lH-indazol-6-yl)-1,4-dihydro-thieno[2′,3′:4,5]cyclopenta [1,2-c]pyrazol-6-yl)pyridin-2-yl)methyl) morpholine] are less than 30 nM, less than 1 nM and greater than 1000 nM.
The like results for `Cn1ncc2ccc(-c3n[nH]c4c3Cc3sc(-c5ccc(CN6CCOCC6)nc5)cc3-4)cc21` [Compound 10, 4-((5-(3-(1-methyl-1H-indazol-6-yl)-1,4-dihydro-thieno[2′,3′:4,5]cyclopenta [1,2-c]pyrazol-6-yl)pyridin-2-yl)methyl)morpholine] were, in that order, less than 30 nM, less than 1 nM and greater than 1000 nM.
The like results for `Cc1ccc(-c2cc3c(s2)Cc2c(-c4ccc5cnn(C)c5c4)n[nH]c2-3)cn1` [Compound 11, 3-(1-methyl-1H-indazol-6-yl)-6-(6-methylpyridin-3-yl)-1,4-dihydrothieno [2′,3′:4,5]cyclopenta[1,2-c] pyrazole] were, in that order, 30 to 100 nM, less than 1 nM and greater than 1000 nM.
On to `C[C@@H]1CN(Cc2cccc(-c3cc4c(s3)Cc3c(-c5ccc6cnn(C)c6c5)n[nH]c3-4)c2)C[C@H](C)O1` [Compound 12, (2S,6R)-2,6-dimethyl-4-(3-(3-(1-methyl-1H-indazol-6-yl)-1,4-dihydrothieno [2′,3′:4,5]cyclopenta[1,2-c]pyrazol-6-yl)benzyl) morpholine], for which the IC50 in test [1] is 100 to 300 nM; on FLT3-D835Y mutant kinase it was 1 to 10 nM; at MET kinase, greater than 1000 nM.
For the compound `Cn1ncc2ccc(-c3n[nH]c4c3Cc3sc(-c5cccc(CN6CCOCC6)c5)cc3-4)cc21` [Compound 13, 4-(3-(3-(1-methyl-1H-indazol-6-yl)-1,4-dihydro-thieno[2′,3′:4,5]cyclopenta [1,2-c]pyrazol-6-yl)benzyl) morpholine], the IC50 in test [1] was 30 to 100 nM; at FLT3-D835Y mutant kinase, 1 to 10 nM; on MET kinase, greater than 1000 nM.
The like results for `CN1CCN(Cc2cccc(-c3cc4c(s3)Cc3c(-c5ccc6cnn(C)c6c5)n[nH]c3-4)c2)CC1` [Compound 14, 3-(1-methyl-1H-indazol-6-yl)-6-(3-((4-methylpiperazin-1-yl)methyl)phenyl)-1,4-dihydrothieno [2′,3′:4,5]cyclopenta[1,2-c] pyrazole] were, in that order, 30 to 100 nM, 1 to 10 nM and greater than 1000 nM.
Consider `CN1CCN(C(=O)c2ccc(-c3cc4c(s3)Cc3c(-c5ccc6cnn(C)c6c5)n[nH]c3-4)cc2)CC1` [Compound 15, (4-(3-(1-methyl-1H-indazol-6-yl)-1,4-dihydrothieno[2′,3′:4,5]cyclopenta[1,2-c]pyrazol-6-yl)phenyl)(4-methyl-piperazin-1-yl)methanone], for which the IC50 in test [1] was less than 30 nM; at FLT3-D835Y mutant kinase, less than 1 nM; on MET kinase it was greater than 1000 nM.
The like results for `C[C@@H]1CN(Cc2ccc(-c3cc4c(s3)Cc3c(-c5ccc6cn[nH]c6c5)n[nH]c3-4)cn2)C[C@H](C)O1` [Compound 16, (2R,6S)-4-((5-(3-(1H-indazol-6-yl)-1,4-dihydro-thieno[2′,3′:4,5]cyclopenta [1,2-c]pyrazol-6-yl)pyridin-2-yl)methyl)-2,6-dimethylmorpholine] were, in that order, less than 30 nM, less than 1 nM and greater than 1000 nM.
Take `Cc1cc(-c2cc3c(s2)Cc2c(-c4ccc5cnn(C)c5c4)n[nH]c2-3)ccn1` [Compound 17, 3-(1-methyl-1H-indazol-6-yl)-6-(2-methylpyridin-4-yl)-1,4-dihydrothieno [2′,3′:4,5]cyclopenta[1,2-c] pyrazole]: the IC50 in test [1] is 30 to 100 nM; at FLT3-D835Y mutant kinase, 1 to 10 nM; on MET kinase, greater than 1000 nM.
For `Cn1ncc2ccc(-c3n[nH]c4c3Cc3sc(-c5ccc(CN6CCOCC6)cn5)cc3-4)cc21` [Compound 95, 4-((6-(3-(1-methyl-1H-indazol-6-yl)-1,4-dihydro-thieno[2′,3′:4,5]cyclopenta [1,2-c]pyrazol-6-yl)pyridin-3-yl)methyl) morpholine], the values for the IC50 on FLT3-D835Y mutant kinase and on MET kinase were less than 1 nM and greater than 1000 nM, respectively.
